Consider one compound from PMC5748433, “Study on the effect of EMD386088, a 5-HT6 receptor partial agonist, in enhancing the anti-immobility action of some antidepressants in rats” (Naunyn-Schmiedeberg's Archives of Pharmacology, 2017).

Series [1] relates to serotonin (5-HT) transporter. On the set-up: method as in Jastrzębska-Więsek et al. [2013]. The note with it: ref Jastrzębska-Więsek et al. [2013]; cited from earlier work.
In another series the test system is 5-HT6 receptor. The note with it: cited from earlier work.
Series [2] is described as follows: Metabolic stability in rat liver microsomes (RLMs). It counts as in vitro ADME. Here is the method:
The in silico study was performed by MetaSite 5.1.1 provided by Molecular Discovery Ltd. The highest metabolism probability sites and the prediction of the structures of metabolites were analyzed during this study by liver computational model (Cruciani et al. [2005]).
Commercial, pooled, rat liver microsomes (RLMs) were purchased from Sigma-Aldrich (St. Louis, USA). The biotransformations were carried out using 1 mg/mL of RLMs in 200 μL of reaction buffer containing 0.1 M Tris-HCl (pH 7.4) and EMD386088 with final […] 50 μM. The reaction mixture was preincubated at 37 °C for 5 min and then, the reaction was initiated by adding 50 μL of NADPH Regeneration System (Promega, Madison, WI, USA). The reaction was terminated after 30 or 120 min by the addition of 200 μL of cold methanol. The mixture was next centrifuged at 14000 rpm for 15 min and the UPLC/MS analysis of the supernatant was performed. Mass spectra was recorded on UPLC/MS system consisted of a Waters Acquity UPLC (Waters, Milford, USA), coupled to a Waters TQD mass spectrometer (electrospray ionization mode ESI-tandem quadrupole).

In a further series the test system is rats. The series can be described thus: Modified forced swim test (FST) in rats. The format is in vivo, rat. Particulars: EMD386088 alone 2.5 mg/kg i.p. Here is the method:
[…]. All drugs were dissolved in distilled water immediately before administration in a volume of 2 mL/kg. All the compounds were administered intraperitoneally (i.p.). […] Control animals received vehicle according to the same schedule.
The experiment was carried out according to the modified by Detke et al. ([1995]) method of Porsolt et al. ([1978]). On the first day of an experiment, the animals were gently individually placed in Plexiglas cylinders (40 cm high, 18 cm in diameter) containing 30 cm of water maintained at 23–25 °C for 15 min. On removal from water, the rats were placed for 30 min in a Plexiglas box under 60-W bulb to dry. On the following day (24 h later), the rats were re-placed in the cylinder and the total duration of immobility, swimming, and climbing was recorded during the whole 5-min test period. The swimming behavior entailed active swimming motions, e.g., moving horizontally around in the cylinder. Climbing activity consisted of upward directed movements of the forepaws along the side of the swim chamber, and immobility was assigned when no additional activity was observed other than that necessary to keep the rat’s head above the water (Detke et al. [1995]). Fresh water was used for each animal.
The data of behavioral studies were evaluated using two-way analysis of variance (ANOVA) followed by Bonferroni’s post hoc test, p < 0.05 was considered significant.

In a further series the target is recombinant human CYP3A4 (Homo sapiens, UniProt P08684). Particulars: recombinant human CYP3A4, P450-Glo, 0.025 to 25 μM.
Chain of recombinant human CYP3A4 (P08684 whole entry): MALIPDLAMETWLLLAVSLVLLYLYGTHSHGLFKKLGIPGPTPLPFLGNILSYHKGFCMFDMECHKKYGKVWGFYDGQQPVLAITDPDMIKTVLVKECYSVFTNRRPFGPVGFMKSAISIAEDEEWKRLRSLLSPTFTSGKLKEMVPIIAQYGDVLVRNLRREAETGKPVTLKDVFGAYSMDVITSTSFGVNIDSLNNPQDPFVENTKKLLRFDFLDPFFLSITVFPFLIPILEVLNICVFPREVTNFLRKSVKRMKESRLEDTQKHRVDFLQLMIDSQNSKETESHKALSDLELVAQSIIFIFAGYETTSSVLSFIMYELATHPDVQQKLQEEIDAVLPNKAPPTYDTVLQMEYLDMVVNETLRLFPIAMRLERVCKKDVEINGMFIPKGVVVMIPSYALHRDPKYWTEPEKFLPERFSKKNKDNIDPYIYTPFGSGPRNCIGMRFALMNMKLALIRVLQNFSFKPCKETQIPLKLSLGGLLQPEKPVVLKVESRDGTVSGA

Experimental for recombinant human CYP3A4: The enzymatic reactions were performed in white polystyrene, flat-bottom Nunc™ MicroWell™ 96-Well Microplates (Thermo Scientific, Waltham, MA USA). The luminescence signal was measured with a microplate reader in luminescence mode (EnSpire, PerkinElmer, Waltham, MA USA).

For `Cc1[nH]c2ccc(Cl)cc2c1C1=CCNCC1.Cl` [EMD386088, 5-chloro-2-methyl-3-(1,2,3,6-tetrahydro-4-pyridinyl)-1H-indole hydrochloride], the “affinity for serotonin (5-HT) transporter” value in series [1] is reported as “no affinity”. For the same compound, the “5-HT6 receptor functional profile” value in the series on 5-HT6 receptor (in vitro, ref Jastrzębska-Więsek et al. [2013]) was “potent 5-HT6 receptor partial agonist”. Besides, at 5-HT6 receptor (read-out: EC50 5-HT6 receptor agonist, ref Mattsson et al. ([2005])), the EC50 is 1 nM. Moreover, in series [2] (RLMs 1 mg/mL, EMD386088 50 μM, after 120 min, 37 °C), the “compound metabolized in the presence of RLMs” value was around 40%. Moreover, the main metabolic pathway entry in series [2] (in silico (MetaSite) and in vitro (RLMs) studies) is on record as “dehydrogenation of tetrahydropyridine moiety”. The “activity in the FST” value with rats is on record as “not active”. For the same compound, the “influence on CYP3A4 activity” value on recombinant human CYP3A4 is recorded as “did not influence on CYP3A4 activity”.
